{"source": "patent US9295653B2", "about": "“Controlled agglomeration” (Veloxis Pharmaceuticals A/S, priority 2001, dated 2016)", "origin": "cited, not measured here", "note": "Counter-ions that a name gives are not always drawn.", "data": [{"conditions": "Table 2; figure in brackets after 'Low'", "values": [{"smiles": "COc1cc(N)c(Cl)cc1C(=O)NC1CCN(CCCOc2ccc(F)cc2)CC1OC", "note": "(stereo not drawn) [Cisapride]", "Bioavailability": "Low (35-40%)"}, {"smiles": "COc1ccc2cc(CCC(C)=O)ccc2c1", "note": "[Nabumetone]", "Bioavailability": "Low (35%)"}, {"smiles": "CCCC1O[C@@H]2C[C@H]3[C@@H]4CCC5=CC(=O)C=C[C@]5(C)[C@H]4[C@@H](O)C[C@]3(C)[C@]2(C(=O)CO)O1", "note": "(stereo partly drawn) [Budesonide]", "Bioavailability": "Low (~15%)"}, {"smiles": "O=[N+]([O-])O[C@H]1CO[C@H]2[C@@H]1OC[C@H]2O[N+](=O)[O-]", "note": "[Isosorbide dinitrate]", "Bioavailability": "Low (20-35%)"}, {"smiles": "CC(=O)S[C@@H]1CC2=CC(=O)CC[C@]2(C)[C@H]2CC[C@@]3(C)[C@@H](CC[C@@]34CCC(=O)O4)[C@H]12", "note": "[Spironolactone]", "Bioavailability": "Low (25%)"}]}, {"conditions": "in vivo", "values": [{"smiles": "C#C[C@]1(O)CC[C@H]2[C@@H]3CCC4=Cc5oncc5C[C@]4(C)[C@H]3CC[C@@]21C", "note": "[Danazol]", "Bioavailability": "Low"}, {"smiles": "CN1CCC[C@@H]1CCO[C@](C)(c1ccccc1)c1ccc(Cl)cc1", "note": "[Clemastine fumarate]", "Bioavailability": "Low (~39%)"}, {"smiles": "OCCN1CCN(CCCN2c3ccccc3Sc3ccc(Cl)cc32)CC1", "note": "[Perphenazine]", "Bioavailability": "Low"}, {"smiles": "OCCN1CCN(CCCN2c3ccccc3Sc3ccc(C(F)(F)F)cc32)CC1", "note": "[Fluphenazine]", "Bioavailability": "Low (2-3%)"}, {"smiles": "Nc1ccc(O)c(C(=O)O)c1", "note": "[Mesalamine]", "Bioavailability": "Low (~20%)"}, {"smiles": "COc1ccc(CCN2CCC(Nc3nc4ccccc4n3Cc3ccc(F)cc3)CC2)cc1", "note": "[Astemizole]", "Bioavailability": "Low-moderate"}, {"smiles": "CCn1cc(C(=O)O)c(=O)c2cc(F)c(N3CCNCC3)cc21", "note": "[Norfloxacin]", "Bioavailability": "Low (30-40%)"}, {"smiles": "CN[C@H]1CC[C@@H](c2ccc(Cl)c(Cl)c2)c2ccccc21", "note": "[Sertraline]", "Bioavailability": "Low (<44%)"}, {"smiles": "OC(CCN1CCCCC1)(c1ccccc1)C1CC2C=CC1C2", "note": "(stereo not drawn) [Biperiden]", "Bioavailability": "Low (29-33%)"}, {"smiles": "NC(N)=Nc1nc(CSCCC(N)=NS(N)(=O)=O)cs1", "note": "[Famotidine]", "Bioavailability": "Low (39-50%)"}, {"smiles": "C[C@]12CC[C@H]3[C@@H](CCC4=CC(=O)CC[C@@]43C)[C@@H]1CC[C@@H]2O", "note": "[Testosterone]", "Bioavailability": "Low"}, {"smiles": "CCCCCc1cc(O)c2c(c1)OC(C)(C)[C@@H]1CCC(C)=C[C@@H]21", "note": "[Dronabinol]", "Bioavailability": "Low 10-20%)"}, {"smiles": "COC(=O)C1=C(C)NC(C)=C(C(=O)OC(C)C)C1c1cccc2nonc12", "note": "(stereo not drawn) [Isradipine]", "Bioavailability": "Low (15-24%)"}, {"smiles": "CC(=O)OC[C@H]1O[C@@H]([S-])[C@H](OC(C)=O)[C@@H](OC(C)=O)[C@@H]1OC(C)=O.CCP(CC)CC.[Au+]", "note": "[Auranofin]", "Bioavailability": "Low (15-25%)"}, {"smiles": "CC1CC(OC(=O)C(O)c2ccccc2)CC(C)(C)C1", "note": "(stereo not drawn) [Cyclandelate]", "Bioavailability": "Low"}, {"smiles": "CCOC(=O)C1=C(C)NC(C)=C(C(=O)OC)C1c1cccc(Cl)c1Cl", "note": "(stereo not drawn) [Felodipine]", "Bioavailability": "Low (15%)"}]}, {"conditions": "Table 1, Poorly-Soluble Drug Candidates; descriptive term", "values": [{"smiles": "CN1CCCC(n2nc(Cc3ccc(Cl)cc3)c3ccccc3c2=O)CC1", "note": "(stereo not drawn) [Azelastine]", "Solubility In Water": "Insoluble"}, {"smiles": "CC(=O)N1CCN(c2ccc(OCC3COC(Cn4ccnc4)(c4ccc(Cl)cc4Cl)O3)cc2)CC1", "note": "(stereo not drawn) [Ketoconazole]", "Solubility In Water": "Insoluble"}, {"smiles": "CN1C(C(=O)Nc2ccccn2)=C(O)c2ccccc2S1(=O)=O", "note": "[Piroxicam]", "Solubility In Water": "Sparingly"}, {"smiles": "CCCC(CCC)C(=O)O", "note": "[Divalproex]", "Solubility In Water": "[…]"}, {"smiles": "COc1ccc2[nH]c([S+]([O-])Cc3ncc(C)c(OC)c3C)nc2c1", "note": "(stereo not drawn) [Omeprazole]", "Solubility In Water": "Slightly"}, {"smiles": "COc1ccc2cc(CCC(C)=O)ccc2c1", "note": "[Nabumetone]", "Solubility In Water": "Insoluble"}, {"smiles": "C[C@@](Cc1ccc(O)c(O)c1)(NN)C(=O)O", "note": "[Carbidopa]", "Solubility In Water": "Slightly"}, {"smiles": "CC1=C(/C=C/C(C)=C/C=C/C(C)=C\\C(=O)O)C(C)(C)CCC1", "note": "[Isotretinoin]", "Solubility In Water": "Insoluble"}, {"smiles": "O=C1NC(=O)C(c2ccccc2)(c2ccccc2)N1", "note": "[Phenytoin]", "Solubility In Water": "Insoluble"}, {"smiles": "Cc1cccc(Nc2ccccc2C(=O)O)c1C", "note": "[Mefenamic acid]", "Solubility In Water": "Slightly"}, {"smiles": "NC(=O)N1c2ccccc2C=Cc2ccccc21", "note": "[Carbamazepine]", "Solubility In Water": "Insoluble"}, {"smiles": "OCCN(CCO)c1nc(N2CCCCC2)c2nc(N(CCO)CCO)nc(N3CCCCC3)c2n1", "note": "[Dipyridamole]", "Solubility In Water": "Slightly"}, {"smiles": "CC(CCc1ccc(O)cc1)NCCc1ccc(O)c(O)c1", "note": "(stereo not drawn) [Dobutamine]", "Solubility In Water": "Sparingly"}, {"smiles": "COC(=O)C1=C(C)NC(C)=C(C(=O)OC(C)C)C1c1cccc2nonc12", "note": "(stereo not drawn) [Isradipine]", "Solubility In Water": "Insoluble"}, {"smiles": "CC(C(=O)O)c1ccc(-c2ccccc2)c(F)c1", "note": "(stereo not drawn) [Flurbiprofen]", "Solubility In Water": "Slightly"}, {"smiles": "Cc1c(OCC(F)(F)F)ccnc1C[S+]([O-])c1nc2ccccc2[nH]1", "note": "(stereo not drawn) [Lansoprazole]", "Solubility In Water": "Insoluble"}, {"smiles": "CC[C@H](C)C(=O)O[C@H]1C[C@@H](C)C=C2C=C[C@H](C)[C@H](CC[C@@H]3C[C@@H](O)CC(=O)O3)[C@H]21", "note": "[Lovastatin]", "Solubility In Water": "Insoluble"}]}, {"conditions": "Table 2, Poorly-Soluble Drugs with Low Bioavailability; descriptive term", "values": [{"smiles": "COc1ccc2cc(CCC(C)=O)ccc2c1", "note": "[Nabumetone]", "Solubility In Water": "Insoluble"}, {"smiles": "CC(=O)S[C@@H]1CC2=CC(=O)CC[C@]2(C)[C@H]2CC[C@@]3(C)[C@@H](CC[C@@]34CCC(=O)O4)[C@H]12", "note": "[Spironolactone]", "Solubility In Water": "Insoluble"}, {"smiles": "COC(=O)C1=C(C)NC(C)=C(C(=O)OC(C)C)C1c1cccc2nonc12", "note": "(stereo not drawn) [Isradipine]", "Solubility In Water": "Insoluble"}, {"smiles": "CC[C@H](C)C(=O)O[C@H]1C[C@@H](C)C=C2C=C[C@H](C)[C@H](CC[C@@H]3C[C@@H](O)CC(=O)O3)[C@H]21", "note": "[Lovastatin]", "Solubility In Water": "Insoluble"}]}]}
